Measurements published in patent US20250326757A1, “SOLID FORMS OF HETEROCYCLYLAMIDES AS IRAK4 INHIBITORS” (AstraZeneca AB, priority 2022, published 2025).

Assays:
[1] = assay type: physicochemical
Procedure: Amorphous Compound (I) (20 mg) was suspended in 2-propanol (800 μL) and stirred at room temperature for 2 weeks. The resultant solid was collected by filtration.

[2] = assay type: physicochemical; details: 70° C., low (11%) and high (75%) relative humidity, 21 days
Procedure: The physical and chemical stability of N-(Imidazo[1,2-b]pyridazin-3-yl)-6-methoxy-2-((1r,4r)-4-(N-methylacetamido)cyclohexyl)-2H-indazole-5-carboxamide Form A was further assessed under stressed conditions (elevated temperature (70° C.) at low (11%) and high (75%) relative humidity) over a period of 21 days according to standard protocols. Briefly, samples of Form A material were weighed into sample vials, the sample vials were placed in separate jars each containing a MadgeTech temperature and humidity logger and, in a separate vial, a saturated solution of either lithium chloride (to give 11% relative humidity) or sodium chloride (to give 75% relative humidity). The two jars (low/high humidity) were then sealed and placed in a calibrated oven at a temperature of 70° C. for a period of 21 days. Control samples were maintained in sealed vials in a refrigerator for the duration of the study.
Furthermore, XRPD confirmed that the physical form of the material over the course of the study was unchanged. It could thus be concluded that no chemical degradation of the samples or change in their physical form occurred on storage under stressed conditions. Accordingly, the suitability of N-(Imidazo[1,2-b]pyridazin-3-yl)-6-methoxy-2-((1r,4r)-4-(N-methylacetamido)cyclohexyl)-2H-indazole-5-carboxamide Form A for further development in pharmaceutical formulations was established.

Stability to prolonged storage under accelerated ageing conditions [1]: stable
Physical form by XRPD over the course of the study [2]: unchanged
SMILES: COc1cc2nn([C@H]3CC[C@H](N(C)C(C)=O)CC3)cc2cc1C(=O)Nc1cnc2cccnn12 [Form A, N-(Imidazo[1,2-b]pyridazin-3-yl)-6-methoxy-2-((1r,4r)-4-(N-methylacetamido)cyclohexyl)-2H-indazole-5-carboxamide Form A]
